Several values for one entry are separate records, joined by “and”; a condition that tells them apart may be missing. Identical values can stand only once.

Data set [1] is described as follows: Functional metabolic assay to measure dose dependent changes in cell viability from drug treatment in HeLa-ACE2 cells. Hela-ACE2 cells are seeded prior to drug treatment, then incubated in MTT (3-[4,5-dimethylthiazol-2-yl]-2,5- diphenyltetrazolium bromide) labelling reagent and SDS. Absorbance is measured at 560 and 750 nm and analyzed by Gen5 software. The assay has been performed by Icahn School of Medicine at Mount Sinai. It is filed as toxicity, cell-based. The note with it: human.

A short description of data set [2]: Functional metabolic assay to measure dose dependent changes in cell viability from drug treatment in Vero E6/TMPRSS2 cells (cotreated with P-gp inhibitor, Elacridar). Cells are treated with antiviral candidates that have been serially diluted. Cytotoxicity is reported via measuring absorbance and analysis of MTT/MTS assays in uninfected cells. The assay has been performed by Icahn School of Medicine at Mount Sinai. It is filed as toxicity, cell-based, VeroE6/TMPRSS2. To be noted: chlorocebus sabaeus.

Data set [3] can be described thus: Functional metabolic assay to measure dose dependent changes in cell viability from drug treatment in iPSC-Pneumocyte cells. The cells are seeded then incubated in MTT (3-[4,5-dimethylthiazol-2-yl]-2,5- diphenyltetrazolium bromide) labeling reagent and SDS. Absorbance is measured at 560 and 750 nm and analyzed by Gen5 software. The assay has been performed by Icahn School of Medicine at Mount Sinai. The format is toxicity, cell-based. The note with it: human; for CC50: iPSC-Pneumocyte cells; for CC10: pneumocyte.

Data set [4] has as its system Middle East respiratory syndrome-related coronavirus. Description: microbe, parasite or virus in culture. The format is functional, Chlorocebus sabaeus. To be noted: Vero 76.
Setting [5] is: Vero E6/TMPRSS2 cells, with Elacridar (P-gp inhibitor), concentration not stated.

For the compound `Cc1nn(C)cc1-c1cc2c(N[C@H](c3ccc4c(c3)S(=O)(=O)CCC4)C(C)C)ncnc2[nH]1`, the figures for the CC50 in data set [1] (HeLa-ACE2 cells) and in data set [2] (setting [5]) were > 20 µM and > 5 µM, respectively. Moreover, the CC10 was > 20 µM in data set [1] (hela-ace2) and > 5 µM in data set [2] (veroe6/tmprss2).
On to `CC(C)[C@@H](Nc1ncnc2[nH]c(C(=O)N[C@@H]3CCN(C)C3)cc12)c1ccc2c(c1)S(=O)(=O)CCC2`, for which the CC50 in data set [1] (HeLa-ACE2 cells) is > 20 µM; in data set [3], < 0.206 µM; in data set [2] (setting [5]) it was > 5 µM. The CC10 is > 20 µM in data set [1] (hela-ace2), < 0.206 µM in data set [3] and > 5 µM in data set [2] (veroe6/tmprss2).
For `COc1ccc([C@H](Cc2nnn[nH]2)NC(=O)c2ncnc3[nH]ccc23)cc1`, the CC50 in data set [1] (HeLa-ACE2 cells) is > 20 µM; in data set [2] (setting [5]), > 5 µM. Further, the figures for the CC10 in data set [1] (hela-ace2) and in data set [2] (veroe6/tmprss2) were > 20 µM and > 5 µM, respectively.
`CNCc1cc(-c2cc3c(N[C@@H](c4ccc5c(c4)S(=O)(=O)CCC5)C(C)C)ncnc3[nH]2)co1`: the CC50 in data set [1] (HeLa-ACE2 cells) is > 20 µM; in data set [3], > 50 µM; in data set [2] (setting [5]), > 5 µM. Besides, the CC10 in data set [1] (hela-ace2) is > 20 µM; in data set [3], > 50 µM; in data set [2] (veroe6/tmprss2), > 5 µM.
`C[C@H](C(=O)O)[C@@H](NC(=O)c1ncnc2[nH]ccc12)c1ccc(Br)cc1`: the CC50 is > 20 µM in data set [1] (HeLa-ACE2 cells) and > 5 µM in data set [2] (setting [5]). In addition, the CC10 in data set [1] (hela-ace2) is > 20 µM; in data set [2] (veroe6/tmprss2), > 5 µM.
As for `CNC(=O)Cn1cc(-c2cc3c(N[C@@H](c4ccc5c(c4)S(=O)(=O)CCC5)C(C)C)ncnc3[nH]2)cn1`, the CC50 in data set [1] (HeLa-ACE2 cells) was > 20 µM; in data set [3] it was 1.7 µM; in data set [2] (setting [5]), > 5 µM. The CC10 in data set [1] (hela-ace2) was > 20 µM; in data set [3], 1.528 µM; in data set [2] (veroe6/tmprss2), > 5 µM.
In the case of `CC(C)[C@@H](Nc1ncnc2[nH]c(-c3cnn(C)c3C#N)cc12)c1ccc2c(n1)OCCO2`, the CC10 was > 50 µM and > 20 µM in data set [1] (hela-ace2); 5.176 µM in data set [3]; > 5 µM in data set [2] (veroe6/tmprss2). Also, the CC50 was > 50 µM in data set [1] (hela-ace2), 6.02 µM in data set [3] and > 5 µM in data set [2] (setting [5]).
Turning to `CC(C)[C@H](Nc1ncnc2[nH]c(-c3cnn(C)c3C#N)cc12)c1ccc2c(n1)OCCO2`, the figures for the CC50 in data set [1] (HeLa-ACE2 cells), in data set [1] (hela-ace2) and in data set [2] (setting [5]) were > 20 µM, 12.5 µM and > 5 µM, respectively. Further, the CC10 in data set [1] (hela-ace2) is > 20 µM and > 50 µM; in data set [2] (veroe6/tmprss2), > 5 µM.
As to `CC(C)[C@H](Nc1ncnc2[nH]ccc12)c1ccc2c(c1)S(=O)(=O)CCC2`, the CC50 in data set [1] (HeLa-ACE2 cells) and in data set [2] (veroe6/tmprss2) was > 20 µM in each case. The CC10 in data set [1] (hela-ace2) was > 20 µM.
Regarding `CNC(=O)c1c[nH]c2ncnc(N[C@H](c3ccc4c(c3)S(=O)(=O)CCC4)C(C)C)c12`, the CC50 is > 20 µM in data set [1] (HeLa-ACE2 cells), > 50 µM in data set [3] and > 32 µM in data set [4]. Also, the CC10 in data set [1] (hela-ace2) is > 20 µM; in data set [3], > 50 µM.

Source of the values: ChEMBL document CHEMBL5441451, “ASAP - In vitro cytotoxicity” (2024).
